# Assay results reported in patent publication US20250376461A1, “INDAZOLE DERIVATIVES FOR TREATING TRPM3-MEDIATED DISORDERS” (Katholieke Universiteit Leuven, priority 2022, published 2025).
# Target: T1, mouse TRPM3α2 (mTRPM3) ion channel (Mus musculus, UniProt J9SQF3)
# T1 construct: expressed in transfected cells; host or cells: flip-in HEK293
# Assay: TRPM3 ion channel driven Ca2+ uptake, Fluo-4 AM assay, mTRPM3alpha2 overexpressing flip-in HEK293 cells stimulated with pregnenolone sulfate (50 μM)
# Type: cell-based
# Conditions: mTRPM3 overexpressing HEK293 cells stimulated with pregnenolone sulfate (50 μM), activity ranges A, B, C
# Summary of the method: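 Ca2+ influx via mouse TRPM3α2 was opened with pregnenolone sulfate (50 μM) and tracked by Fluo-4 AM fluorescence at 485/535 nm, read directly after adding about 2000 stably transfected HEK293 cells per well to compound. IC50 values come from percent inhibition scaled to vehicle and positive-control inhibitor signals.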
# T1 sequence (J9SQF3 1-1709 isoform J9SQF3-12): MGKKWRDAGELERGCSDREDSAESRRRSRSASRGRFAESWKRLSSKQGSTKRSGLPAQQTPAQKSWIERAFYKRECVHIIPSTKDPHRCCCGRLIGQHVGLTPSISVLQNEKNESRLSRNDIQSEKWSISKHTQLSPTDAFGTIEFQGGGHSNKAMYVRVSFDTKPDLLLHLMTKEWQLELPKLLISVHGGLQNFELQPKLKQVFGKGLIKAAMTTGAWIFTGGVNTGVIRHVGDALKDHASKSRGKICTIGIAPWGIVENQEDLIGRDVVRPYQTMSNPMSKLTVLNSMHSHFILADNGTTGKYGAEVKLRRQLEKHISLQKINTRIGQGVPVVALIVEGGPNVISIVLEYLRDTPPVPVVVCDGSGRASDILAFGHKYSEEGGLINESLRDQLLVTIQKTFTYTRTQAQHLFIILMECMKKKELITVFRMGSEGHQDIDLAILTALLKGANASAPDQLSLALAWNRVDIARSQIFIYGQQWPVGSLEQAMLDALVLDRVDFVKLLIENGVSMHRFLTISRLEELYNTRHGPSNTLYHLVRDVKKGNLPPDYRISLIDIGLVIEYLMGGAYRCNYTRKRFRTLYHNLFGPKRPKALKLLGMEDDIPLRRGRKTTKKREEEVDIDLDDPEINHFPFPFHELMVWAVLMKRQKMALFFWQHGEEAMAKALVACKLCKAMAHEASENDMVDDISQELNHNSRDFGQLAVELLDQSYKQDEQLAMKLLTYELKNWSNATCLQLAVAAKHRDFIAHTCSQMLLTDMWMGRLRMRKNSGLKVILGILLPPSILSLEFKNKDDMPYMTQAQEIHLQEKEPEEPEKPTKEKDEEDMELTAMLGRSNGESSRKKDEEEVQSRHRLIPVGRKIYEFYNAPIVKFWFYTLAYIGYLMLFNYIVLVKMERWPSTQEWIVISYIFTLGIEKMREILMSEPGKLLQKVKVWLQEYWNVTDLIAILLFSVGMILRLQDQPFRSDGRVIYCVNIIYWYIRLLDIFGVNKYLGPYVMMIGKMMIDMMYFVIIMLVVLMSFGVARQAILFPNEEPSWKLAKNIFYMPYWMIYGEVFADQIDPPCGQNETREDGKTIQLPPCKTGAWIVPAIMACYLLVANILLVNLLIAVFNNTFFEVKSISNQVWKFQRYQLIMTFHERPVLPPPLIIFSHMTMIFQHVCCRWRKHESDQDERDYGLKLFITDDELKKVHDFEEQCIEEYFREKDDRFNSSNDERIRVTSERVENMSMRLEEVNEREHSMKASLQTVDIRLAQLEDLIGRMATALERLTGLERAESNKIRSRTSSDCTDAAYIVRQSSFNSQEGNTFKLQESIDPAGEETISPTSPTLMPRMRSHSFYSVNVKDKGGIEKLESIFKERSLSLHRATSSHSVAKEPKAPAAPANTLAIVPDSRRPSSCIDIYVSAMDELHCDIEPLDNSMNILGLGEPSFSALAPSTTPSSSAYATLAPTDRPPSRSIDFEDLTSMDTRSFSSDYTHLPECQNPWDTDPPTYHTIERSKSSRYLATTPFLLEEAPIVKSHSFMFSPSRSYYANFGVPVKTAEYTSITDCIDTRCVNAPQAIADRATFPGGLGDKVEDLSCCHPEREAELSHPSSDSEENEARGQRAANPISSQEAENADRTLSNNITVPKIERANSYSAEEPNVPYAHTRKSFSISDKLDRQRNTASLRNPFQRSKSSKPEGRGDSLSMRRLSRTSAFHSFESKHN
row,Structure (SMILES),IC50 [µM]
1,"Cn1nc2ccc(OCc3ccccn3)cc2c1C(=O)NC1CCOCC1 [Cpd 102, 2-methyl-N-(oxan-4-yl)-5-[(pyridin-2-yl)methoxy]-2H-indazole-3-carboxamide]",> 20
2,"Cn1nc2ccc(OCc3ccccn3)cc2c1C(=O)NC1(CO)CC1 [Cpd 104, N-[1-(hydroxymethyl)cyclopropyl]-2-methyl-5-[(pyridin-2-yl)methoxy]-2H-indazole-3-carboxamide]",> 20
3,"Cc1ncsc1COc1ccc2nn(C)c(C(=O)NC(C)(C)C(N)=O)c2c1 [Cpd 110, 2-methyl-2-({2-methyl-5-[(4-methyl-1,3-thiazol-5-yl)methoxy]-2H-indazol-3-yl}formamido)propanamide]",1 to 20
4,"Cc1ncc(COc2ccc3nn(C)c(C(=O)NC4CCN(C)CC4)c3c2)s1 [Cpd 111, 2-methyl-5-[(2-methyl-1,3-thiazol-5-yl)methoxy]-N-(1-methylpiperidin-4-yl)-2H-indazole-3-carboxamide]",> 20
5,"Cc1ncsc1COc1ccc2nn(C)c(C(=O)NC3CCN(C)CC3)c2c1 [Cpd 112, 2-methyl-5-[(4-methyl-1,3-thiazol-5-yl)methoxy]-N-(1-methylpiperidin-4-yl)-2H-indazole-3-carboxamide]",> 20
6,"Cc1ncsc1COc1ccc2nn(C)c(C(=O)N[C@H](CO)C(N)=O)c2c1 [Cpd 113, (2R)-3-hydroxy-2-({2-methyl-5-[(4-methyl-1,3-thiazol-5-yl)methoxy]-2H-indazol-3-yl}formamido)propanamide]",1 to 20
7,"Cc1ncc(COc2ccc3nn(C)c(C(=O)NC4(CO)CC4)c3c2)s1 [Cpd 114, N-[1-(hydroxymethyl)cyclopropyl]-2-methyl-5-[(2-methyl-1,3-thiazol-5-yl)methoxy]-2H-indazole-3-carboxamide]",> 20
8,"Cc1ncsc1COc1ccc2nn(C)c(C(=O)NC3CCOCC3)c2c1 [Cpd 115, 2-methyl-5-[(4-methyl-1,3-thiazol-5-yl)methoxy]-N-(oxan-4-yl)-2H-indazole-3-carboxamide]",1 to 20
9,"Cc1ncc(COc2ccc3nn(C)c(C(=O)N[C@H](C)C(N)=O)c3c2)s1 [Cpd 117, (2R)-2-({2-methyl-5-[(2-methyl-1,3-thiazol-5-yl)methoxy]-2H-indazol-3-yl}formamido)propanamide]",> 20
10,"Cc1ncsc1COc1ccc2nn(C)c(C(=O)N[C@H](C)C(N)=O)c2c1 [Cpd 118, (2R)-2-({2-methyl-5-[(4-methyl-1,3-thiazol-5-yl)methoxy]-2H-indazol-3-yl}formamido)propanamide]",1 to 20
11,"Cc1ncc(COc2ccc3nn(C)c(C(=O)N[C@@H](C)C(N)=O)c3c2)s1 [Cpd 119, (2S)-2-({2-methyl-5-[(2-methyl-1,3-thiazol-5-yl)methoxy]-2H-indazol-3-yl}formamido)propanamide]",1 to 20
12,"Cc1ncc(COc2ccc3nn(C)c(C(=O)NC4CCOCC4)c3c2)s1 [Cpd 120, 2-methyl-5-[(2-methyl-1,3-thiazol-5-yl)methoxy]-N-(oxan-4-yl)-2H-indazole-3-carboxamide]",> 20
13,"Cn1nc2ccc(OCc3cccnc3C(F)(F)F)cc2c1C(=O)O [Cpd 122, 2-methyl-5-((2-(trifluoromethyl)pyridin-3-yl)methoxy)-2H-indazole-3-carboxylic acid]",1 to 20
14,"Cn1nccc1COc1ccc2nn(C)c(C(=O)O)c2c1 [Cpd 123, 2-methyl-5-[(1-methyl-1H-pyrazol-5-yl)methoxy]-2H-indazole-3-carboxylic acid]",> 20
15,"Cc1ncc(COc2ccc3nn(C)c(C(=O)NC4(CO)CCOCC4)c3c2)s1 [Cpd 124, N-[4-(hydroxymethyl)oxan-4-yl]-2-methyl-5-[(2-methyl-1,3-thiazol-5-yl)methoxy]-2H-indazole-3-carboxamide]",> 20
16,"Cc1ncc(COc2ccc3nn(C)c(C(=O)N[C@@H](CO)C(N)=O)c3c2)s1 [Cpd 126, (2S)-3-hydroxy-2-({2-methyl-5-[(2-methyl-1,3-thiazol-5-yl)methoxy]-2H-indazol-3-yl}formamido)propanamide]",1 to 20
17,"Cn1nc2ccc(OCC3CCC3)cc2c1C(=O)NC(C)(CO)CO [Cpd 129, 5-(cyclobutylmethoxy)-N-(1,3-dihydroxy-2-methylpropan-2-yl)-2-methyl-2H-indazole-3-carboxamide]",1 to 20
18,"Cc1ncc(COc2ccc3nn(C)c(C(=O)NC(C)(CO)CO)c3c2)o1 [Cpd 131, N-(1,3-dihydroxy-2-methylpropan-2-yl)-2-methyl-5-[(2-methyl-1,3-oxazol-5-yl)methoxy]-2H-indazole-3-carboxamide]",1 to 20
19,"Cn1nc2ccc(OCC3CC3)cc2c1C(=O)NCC1CC1 [Cpd 133, 5-(cyclopropylmethoxy)-N-(cyclopropylmethyl)-2-methyl-2H-indazole-3-carboxamide]",> 20
20,"Cn1nc2ccc(OCC3CC3)cc2c1C(=O)NC(C)(C)C(N)=O [Cpd 134, 2-{[5-(cyclopropylmethoxy)-2-methyl-2H-indazol-3-yl]formamido}-2-methylpropanamide]",1 to 20
21,"Cn1nc2ccc(OCC3CC3)cc2c1C(=O)NC(C)(CO)CO [Cpd 135, 5-(cyclopropylmethoxy)-N-(1,3-dihydroxy-2-methylpropan-2-yl)-2-methyl-2H-indazole-3-carboxamide]",1 to 20
22,"Cn1nc2ccc(OCC3CC3)cc2c1C(=O)N[C@H](CO)C(N)=O [Cpd 136, (2R)-2-{[5-(cyclopropylmethoxy)-2-methyl-2H-indazol-3-yl]formamido}-3-hydroxypropanamide]",1 to 20
23,"C[C@@H](O)[C@H](NC(=O)c1c2cc(OCC3CC3)ccc2nn1C)C(N)=O [Cpd 138, (2S,3R)-2-{[5-(cyclopropylmethoxy)-2-methyl-2H-indazol-3-yl]formamido}-3-hydroxybutanamide]",1 to 20
24,"Cn1nc2ccc(OCC3CC3)cc2c1C(=O)NCCNS(C)(=O)=O [Cpd 140, 5-(cyclopropylmethoxy)-N-(2-methanesulfonamidoethyl)-2-methyl-2H-indazole-3-carboxamide]",> 20
25,"Cc1ncc(COc2ccc3nn(C)c(C(=O)N[C@H](C(N)=O)[C@@H](C)O)c3c2)o1 [Cpd 142, (2S,3R)-3-hydroxy-2-({2-methyl-5-[(2-methyl-1,3-oxazol-5-yl)methoxy]-2H-indazol-3-yl}formamido)butanamide]",1 to 20

# Continued, values first:
row,IC50 [µM],Structure (SMILES)
1,1 to 20,"Cc1ncsc1COc1ccc2nn(C)c(C(=O)N[C@@H](C)C(N)=O)c2c1 [Cpd 101, (2S)-2-({2-methyl-5-[(4-methyl-1,3-thiazol-5-yl)methoxy]-2H-indazol-3-yl}formamido)propanamide]"
2,1 to 20,"Cc1ncc(COc2ccc3nn(C)c(C(=O)NC(C)(C)C(N)=O)c3c2)s1 [Cpd 103, 2-methyl-2-({2-methyl-5-[(2-methyl-1,3-thiazol-5-yl)methoxy]-2H-indazol-3-yl}formamido)propanamide]"
3,1 to 20,"Cc1ncc(COc2ccc3nn(C)c(C(=O)NC4(CO)COC4)c3c2)s1 [Cpd 105, N-[3-(hydroxymethyl)oxetan-3-yl]-2-methyl-5-[(2-methyl-1,3-thiazol-5-yl)methoxy]-2H-indazole-3-carboxamide]"
4,1 to 20,"Cn1nc2ccc(OCc3ccccn3)cc2c1C(=O)NC1(CO)CCOCC1 [Cpd 106, N-[4-(hydroxymethyl)oxan-4-yl]-2-methyl-5-[(pyridin-2-yl)methoxy]-2H-indazole-3-carboxamide]"
5,1 to 20,"Cc1ncsc1COc1ccc2nn(C)c(C(=O)NC3(C(N)=O)CCOCC3)c2c1 [Cpd 107, N-(4-carbamoyloxan-4-yl)-2-methyl-5-[(4-methyl-1,3-thiazol-5-yl)methoxy]-2H-indazole-3-carboxamide]"
6,1 to 20,"Cc1ncc(COc2ccc3nn(C)c(C(=O)NC4(CO)CCC4)c3c2)s1 [Cpd 108, N-[1-(hydroxymethyl)cyclobutyl]-2-methyl-5-[(2-methyl-1,3-thiazol-5-yl)methoxy]-2H-indazole-3-carboxamide]"
7,1 to 20,"Cc1ncsc1COc1ccc2nn(C)c(C(=O)NC3(CO)COC3)c2c1 [Cpd 109, N-[3-(hydroxymethyl)oxetan-3-yl]-2-methyl-5-[(4-methyl-1,3-thiazol-5-yl)methoxy]-2H-indazole-3-carboxamide]"
8,< 1,"Cc1ncsc1COc1ccc2nn(C)c(C(=O)N[C@@H](CO)C(N)=O)c2c1 [Cpd 116, (2S)-3-hydroxy-2-({2-methyl-5-[(4-methyl-1,3-thiazol-5-yl)methoxy]-2H-indazol-3-yl}formamido)propanamide]"
9,< 1,"C[C@@H](NC(=O)c1c2cc(OCC3CC3)ccc2nn1C)C(N)=O [Cpd 121, (2R)-2-{[5-(cyclopropylmethoxy)-2-methyl-2H-indazol-3-yl]formamido}propanamide]"
10,< 1,"Cn1nc2ccc(OCc3ccccn3)cc2c1C(=O)NC(C)(CO)CO [Cpd 127, N-(1,3-dihydroxy-2-methylpropan-2-yl)-2-methyl-5-[(pyridin-2-yl)methoxy]-2H-indazole-3-carboxamide]"
11,< 1,"Cn1nc2ccc(OCC3CCC3)cc2c1C(=O)N[C@@H](CO)C(N)=O [Cpd 130, (2S)-2-{[5-(cyclobutylmethoxy)-2-methyl-2H-indazol-3-yl]formamido}-3-hydroxypropanamide]"
12,< 1,"Cn1nc2ccc(OCC3CC3)cc2c1C(=O)N[C@@H](CO)C(N)=O [Cpd 137, (2S)-2-{[5-(cyclopropylmethoxy)-2-methyl-2H-indazol-3-yl]formamido}-3-hydroxypropanamide]"
13,< 1,"Cc1ncc(COc2ccc3nn(C)c(C(=O)N[C@@H](CO)C(N)=O)c3c2)o1 [Cpd 141, (2S)-3-hydroxy-2-({2-methyl-5-[(2-methyl-1,3-oxazol-5-yl)methoxy]-2H-indazol-3-yl}formamido)propanamide]"
14,< 1,"Cn1nc2ccc(OCC3CCCC3)cc2c1C(=O)N[C@@H](CO)C(N)=O [Cpd 143, (2S)-2-{[5-(cyclopentylmethoxy)-2-methyl-2H-indazol-3-yl]formamido}-3-hydroxypropanamide]"
